Assays:
galium [1] = assay: Test C preemergence; assay type: in vivo, Galium aparine; details: for Galium plant response rating: preemergence; for Plant response rating, Galium: Preemergence, 31 g ai/ha, scale 0 to 100, 0 no effect, 100 complete control
Procedure, shortened: (§1)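 Plants were kept under greenhouse conditions for 13–15 days following spray. Pre-emergent application went to soil (loam–sand), post-emergent to foliage at 1–4 leaves. Evaluation: visual, percent control against untreated checks.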

kochia [2] = assay: Test A preemergence; assay type: in vivo, Kochia scoparia; details: for Plant response rating, Kochia: 125 g ai/ha, 0 to 100 scale where 0 is no effect and 100 is complete control; for Kochia plant response rating: 500 g ai/ha, 0 to 100 scale, 0 no effect, 100 complete control, approx. 10 days
Procedure, shortened: (§2)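 Scoring: eye-based comparison with untreated controls, 0 for no effect through 100 for complete control, at about day 10. Treatments: directed soil spray preemergence; foliar spray postemergence on 2–10 cm plants at the one- to two-leaf stage. Medium: loam soil with sand.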

kochia [3] = assay: Test A postemergence; assay type: in vivo, Kochia scoparia; details: 0 to 100 scale where 0 is no effect and 100 is complete control
Procedure, shortened: as §2

oilseed rape = assay: Test C preemergence; assay type: in vivo, Brassica napus; details: for Oilseed Rape plant response rating: preemergence; for Plant response rating, Oilseed Rape: Preemergence, 31 g ai/ha, scale 0 to 100, 0 no effect, 100 complete control
Procedure, shortened: as §1

waterhemp = assay: Test C preemergence; assay type: in vivo, Amaranthus rudis; details: for Waterhemp plant response rating: preemergence; for Plant response rating, Waterhemp: Preemergence, 31 g ai/ha, scale 0 to 100, 0 no effect, 100 complete control
Procedure, shortened: as §1

barnyardgrass = assay: Test C preemergence; assay type: in vivo, Echinochloa crus-galli; details: for Barnyardgrass plant response rating: preemergence; for Plant response rating, Barnyardgrass: Preemergence, 31 g ai/ha, scale 0 to 100, 0 no effect, 100 complete control
Procedure, shortened: as §1

galium [4] = assay: Test A postemergence; assay type: in vivo, Galium aparine; details: 0 to 100 scale where 0 is no effect and 100 is complete control
Procedure, shortened: as §2

blackgrass [5] = assay: Test A postemergence; assay type: in vivo, Alopecurus myosuroides
Procedure, shortened: as §2

lambsquarters = assay: Test C preemergence; assay type: in vivo, Chenopodium album; details: for Lambsquarters plant response rating: preemergence; for Plant response rating, Lambsquarters: Preemergence, 31 g ai/ha, scale 0 to 100, 0 no effect, 100 complete control
Procedure, shortened: as §1

Italian ryegrass = assay: Test A postemergence; assay type: in vivo, Lolium multiflorum; details: 0 to 100 scale where 0 is no effect and 100 is complete control
Procedure, shortened: as §2

ragweed = assay: Test C preemergence; assay type: in vivo, Ambrosia elatior; details: for Ragweed plant response rating: preemergence; for Plant response rating, Ragweed: Preemergence, 31 g ai/ha, scale 0 to 100, 0 no effect, 100 complete control
Procedure, shortened: as §1

blackgrass [6] = assay: Test C preemergence; assay type: in vivo, Alopecurus myosuroides; details: for Blackgrass plant response rating: preemergence; for Plant response rating, Blackgrass: Preemergence, 31 g ai/ha, scale 0 to 100, 0 no effect, 100 complete control
Procedure, shortened: as §1

giant foxtail = assay: Test C preemergence; assay type: in vivo, Setaria faberii; details: for Foxtail, Giant plant response rating: preemergence; for Plant response rating, Foxtail, Giant: Preemergence, 31 g ai/ha, scale 0 to 100, 0 no effect, 100 complete control
Procedure, shortened: as §1

large (Lg) crabgrass = assay: Test C preemergence; assay type: in vivo, Digitaria sanguinalis; details: for Crabgrass, Large plant response rating: preemergence; for Plant response rating, Crabgrass, Large: Preemergence, 31 g ai/ha, scale 0 to 100, 0 no effect, 100 complete control
Procedure, shortened: as §1

soybean = assay: Test C preemergence; assay type: in vivo, Glycine max; details: for Soybean plant response rating: preemergence; for Plant response rating, Soybean: Preemergence, 31 g ai/ha, scale 0 to 100, 0 no effect, 100 complete control
Procedure, shortened: as §1

velvetleaf = assay: Test C preemergence; assay type: in vivo, Abutilon theophrasti; details: for Velvetleaf plant response rating: preemergence; for Plant response rating, Velvetleaf: Preemergence, 31 g ai/ha, scale 0 to 100, 0 no effect, 100 complete control
Procedure, shortened: as §1

morningglory = assay: Test C preemergence; assay type: in vivo, Ipomoea coccinea; details: for Morningglory plant response rating: preemergence; for Plant response rating, Morningglory: Preemergence, 31 g ai/ha, scale 0 to 100, 0 no effect, 100 complete control
Procedure, shortened: as §1

pigweed = assay: Test C preemergence; assay type: in vivo, Amaranthus retroflexus; details: for Pigweed plant response rating: preemergence; for Plant response rating, Pigweed: Preemergence, 31 g ai/ha, scale 0 to 100, 0 no effect, 100 complete control
Procedure, shortened: as §1

[7] = 16 g ai/ha, scale 0 to 100 (0 no effect, 100 complete control)
[8] = 62 g ai/ha, scale 0 (no effect) to 100 (complete control)
[9] = 125 g ai/ha, scale 0 (no effect) to 100 (complete control)
[10] = 125 g ai/ha, 0 to 100 scale where 0 is no effect and 100 is complete control

CC(C)c1cnn(-c2c(C#N)cccc2Oc2ncc(Cl)cn2)c1 [Compound 85]
15: Plant response rating, Barnyardgrass (barnyardgrass) | Plant response rating, Soybean (soybean)
100: Kochia plant response rating (kochia [2]) | Plant response rating, Kochia (kochia [3]; 500 g ai/ha) | Waterhemp plant response rating (waterhemp; [8]) | Waterhemp plant response rating (waterhemp; [9]) | Plant response rating, Galium (galium [4]; 500 g ai/ha) | Lambsquarters plant response rating (lambsquarters; [8]) | Lambsquarters plant response rating (lambsquarters; [9]) | Plant response rating, Lambsquarters (lambsquarters) | Plant response rating, Ryegrass, Italian (Italian ryegrass; 500 g ai/ha) | Foxtail, Giant plant response rating (giant foxtail; [9]) | Crabgrass, Large plant response rating (large (Lg) crabgrass; [8]) | Crabgrass, Large plant response rating (large (Lg) crabgrass; [9]) | Velvetleaf plant response rating (velvetleaf; [8]) | Velvetleaf plant response rating (velvetleaf; [9]) | Pigweed plant response rating (pigweed; [8]) | Pigweed plant response rating (pigweed; [9])
20: Foxtail, Giant plant response rating (giant foxtail; [7]) | Morningglory plant response rating (morningglory; [9])
55: Waterhemp plant response rating (waterhemp; [7])
75: Barnyardgrass plant response rating (barnyardgrass; [8])
5: Plant response rating, Blackgrass (blackgrass [6])
50: Galium plant response rating (galium [1]; [8]) | Ragweed plant response rating (ragweed; [8]) | Pigweed plant response rating (pigweed; [7])
95: Barnyardgrass plant response rating (barnyardgrass; [9])
40: Plant response rating, Oilseed Rape (oilseed rape) | Soybean plant response rating (soybean; [8]) | Plant response rating, Pigweed (pigweed)
80: Plant response rating, Kochia (kochia [2]) | Plant response rating, Blackgrass (blackgrass [5]; 500 g ai/ha, 0 to 100 scale, 0 no effect, 100 complete control) | Plant response rating, Velvetleaf (velvetleaf)
0: Galium plant response rating (galium [1]; [7]) | Plant response rating, Galium (galium [1]) | Oilseed Rape plant response rating (oilseed rape; [7]) | Barnyardgrass plant response rating (barnyardgrass; [7]) | Ragweed plant response rating (ragweed; [7]) | Plant response rating, Ragweed (ragweed) | Blackgrass plant response rating (blackgrass [6]; [7]) | Soybean plant response rating (soybean; [7]) | Morningglory plant response rating (morningglory; [7]) | Morningglory plant response rating (morningglory; [8]) | Plant response rating, Morningglory (morningglory)
70: Plant response rating, Kochia (kochia [3]; 125 g ai/ha) | Plant response rating, Blackgrass (blackgrass [5]; [10])
65: Lambsquarters plant response rating (lambsquarters; [7]) | Ragweed plant response rating (ragweed; [9]) | Crabgrass, Large plant response rating (large (Lg) crabgrass; [7])
85: Galium plant response rating (galium [1]; [9]) | Plant response rating, Waterhemp (waterhemp)
60: Plant response rating, Ryegrass, Italian (Italian ryegrass; 125 g ai/ha) | Soybean plant response rating (soybean; [9])
90: Oilseed Rape plant response rating (oilseed rape; [8]) | Plant response rating, Galium (galium [4]; 125 g ai/ha) | Blackgrass plant response rating (blackgrass [6]; [9]) | Foxtail, Giant plant response rating (giant foxtail; [8]) | Plant response rating, Crabgrass, Large (large (Lg) crabgrass)
98: Oilseed Rape plant response rating (oilseed rape; [9])
35: Plant response rating, Foxtail, Giant (giant foxtail) | Velvetleaf plant response rating (velvetleaf; [7])
10: Blackgrass plant response rating (blackgrass [6]; [8])

Cc1cnc(Oc2cccc(C#N)c2-n2cc(C#N)cn2)nc1 [Compound 90]
75: Barnyardgrass plant response rating (barnyardgrass; [8]) | Foxtail, Giant plant response rating (giant foxtail; [8])
90: Plant response rating, Kochia (kochia [3]; 125 g ai/ha) | Plant response rating, Galium (galium [4]; 125 g ai/ha)
45: Plant response rating, Foxtail, Giant (giant foxtail)
50: Plant response rating, Blackgrass (blackgrass [5]; [10])
100: Galium plant response rating (galium [1]; [8]) | Plant response rating, Kochia (kochia [2]) | Kochia plant response rating (kochia [2]) | Plant response rating, Kochia (kochia [3]; 500 g ai/ha) | Oilseed Rape plant response rating (oilseed rape; [9]) | Waterhemp plant response rating (waterhemp; [8]) | Waterhemp plant response rating (waterhemp; [9]) | Plant response rating, Waterhemp (waterhemp) | Plant response rating, Galium (galium [4]; 500 g ai/ha) | Lambsquarters plant response rating (lambsquarters; [7]) | Lambsquarters plant response rating (lambsquarters; [8]) | Lambsquarters plant response rating (lambsquarters; [9]) | Ragweed plant response rating (ragweed; [8]) | Foxtail, Giant plant response rating (giant foxtail; [9]) | Crabgrass, Large plant response rating (large (Lg) crabgrass; [9]) | Velvetleaf plant response rating (velvetleaf; [9]) | Morningglory plant response rating (morningglory; [9]) | Pigweed plant response rating (pigweed; [9])
30: Plant response rating, Ryegrass, Italian (Italian ryegrass; 125 g ai/ha) | Blackgrass plant response rating (blackgrass [6]; [8])
60: Oilseed Rape plant response rating (oilseed rape; [7]) | Plant response rating, Ragweed (ragweed)
25: Crabgrass, Large plant response rating (large (Lg) crabgrass; [7]) | Soybean plant response rating (soybean; [7])
98: Galium plant response rating (galium [1]; [9]) | Oilseed Rape plant response rating (oilseed rape; [8]) | Plant response rating, Lambsquarters (lambsquarters) | Crabgrass, Large plant response rating (large (Lg) crabgrass; [8]) | Plant response rating, Crabgrass, Large (large (Lg) crabgrass) | Velvetleaf plant response rating (velvetleaf; [8]) | Pigweed plant response rating (pigweed; [8])
70: Plant response rating, Blackgrass (blackgrass [5]; 500 g ai/ha, 0 to 100 scale where 0 is no effect and 100 is complete control)
65: Soybean plant response rating (soybean; [8]) | Plant response rating, Velvetleaf (velvetleaf)
0: Barnyardgrass plant response rating (barnyardgrass; [7]) | Morningglory plant response rating (morningglory; [7])
35: Plant response rating, Soybean (soybean) | Velvetleaf plant response rating (velvetleaf; [7])
85: Waterhemp plant response rating (waterhemp; [7]) | Barnyardgrass plant response rating (barnyardgrass; [9]) | Blackgrass plant response rating (blackgrass [6]; [9]) | Plant response rating, Pigweed (pigweed)
95: Ragweed plant response rating (ragweed; [9]) | Soybean plant response rating (soybean; [9])
10: Ragweed plant response rating (ragweed; [7])
80: Plant response rating, Oilseed Rape (oilseed rape) | Plant response rating, Ryegrass, Italian (Italian ryegrass; 500 g ai/ha)
40: Pigweed plant response rating (pigweed; [7])
55: Morningglory plant response rating (morningglory; [8])
20: Plant response rating, Morningglory (morningglory)
5: Galium plant response rating (galium [1]; [7]) | Plant response rating, Galium (galium [1]) | Plant response rating, Barnyardgrass (barnyardgrass) | Blackgrass plant response rating (blackgrass [6]; [7]) | Plant response rating, Blackgrass (blackgrass [6]) | Foxtail, Giant plant response rating (giant foxtail; [7])
